For orientation: IC50 means the midpoint of a concentration-inhibition curve. The low end stands for greater potency in that assay, the high end for weaker potency in that assay.

Counter-ions that a name gives are not always drawn.

One test deals with U2OS cells. The test is described as follows: Titre Blue cell viability assay, U2OS cells. The conditions noted are these: Homo sapiens, U2OS. The format is cell-based.
In the next test the test system is HSP72 in U2OS cells. The test can be described thus: Cell-based ELISA (Cellisa) assay, U2OS cells: inhibition of 17-AAG-induced HSP72. The conditions noted are these: Homo sapiens; U2OS cells (Examples 1-168). (ELISA stands for enzyme-linked immunosorbent assay.)

In the case of `Cc1ccc(NC(=O)c2ccc3c(c2)OCCO3)cc1NC(=O)c1ccc2nc(OCCN3CCCCC3)ccc2c1` [Example 54, N-(5-(2,3-dihydrobenzo[b][1,4]dioxine-6-carboxamido)-2-methylphenyl)-2-(2-(piperidin-1-yl)ethoxy)quinoline-6-carboxamide], the IC50 with U2OS cells was 7 nM; in the test on HSP72 in U2OS cells it was 10 nM.

With `Cc1ccc(NC(=O)c2ccc3c(c2)OCCO3)cc1NC(=O)c1ccc2nc(OCCCN3CCOCC3)ccc2c1` [Example 55, N-(5-(2,3-dihydrobenzo[b][1,4]dioxine-6-carboxamido)-2-methylphenyl)-2-(3-morpholinopropoxy)quinoline-6-carboxamide], the IC50 in the test on U2OS cells amounted to 20 nM; with HSP72 in U2OS cells, 13 nM.

`Cc1ccc(NC(=O)c2ccc3c(c2)OCCO3)cc1NC(=O)c1ccc2nc(OCCCN3CCCC3)ccc2c1` [Example 56, N-(5-(2,3-dihydrobenzo[b][1,4]dioxine-6-carboxamido)-2-methylphenyl)-2-(3-(pyrrolidin-1-yl)propoxy)quinoline-6-carboxamide]: the IC50 with U2OS cells came to 3 nM; with HSP72 in U2OS cells, 13 nM.

On to `Cc1ccc(NC(=O)c2ccc3c(c2)OCCO3)cc1NC(=O)c1ccc2nc(OCCN3CCCC(F)C3)ccc2c1` (stereo not drawn) [Example 57, N-(5-(2,3-dihydrobenzo[b][1,4]dioxine-6-carboxamido)-2-methylphenyl)-2-(2-(3-fluoropiperidin-1-yl)ethoxy)quinoline-6-carboxamide], for which the IC50 in the test with U2OS cells was 31 nM; with HSP72 in U2OS cells, 37 nM.

In the case of `Cc1ccc(NC(=O)c2ccc3c(c2)OCCO3)cc1NC(=O)c1ccc2nc(N(C)CCN(C)C)ccc2c1` [Example 58, N-(5-(2,3-dihydrobenzo[b][1,4]dioxine-6-carboxamido)-2-methylphenyl)-2-((2-(dimethylamino)ethyl)(methyl)amino)quinoline-6-carboxamide], the IC50 with U2OS cells amounted to 33 nM; in the test with HSP72 in U2OS cells, 15 nM.

Consider `Cc1ccc(NC(=O)c2ccc3c(c2)OCCO3)cc1NC(=O)c1ccc2nc(CCN3CCCC3)ccc2c1` [Example 59, N-(5-(2,3-dihydrobenzo[b][1,4]dioxine-6-carboxamido)-2-methylphenyl)-2-(2-(pyrrolidin-1-yl)ethyl)quinoline-6-carboxamide], for which the results for the half-inhibitory concentration (IC50) in the test with U2OS cells and in the test on HSP72 in U2OS cells were 410 nM and 15 nM, respectively.

With `Cc1ccc(NC(=O)c2ccc3c(c2)OCCO3)cc1NC(=O)c1ccc2nc(OCCN3CCC3)ccc2c1` [Example 60, 2-(2-(azetidin-1-yl)ethoxy)-N-(5-(2,3-dihydrobenzo[b][1,4]dioxine-6-carboxamido)-2-methylphenyl)quinoline-6-carboxamide], the results for the IC50 in the test on U2OS cells and in the test on HSP72 in U2OS cells were 13 nM and 16 nM, respectively.

As to `Cc1ccc(NC(=O)c2ccc3c(c2)OCCO3)cc1NC(=O)c1ccc2nc(OCCN3CCCC3C)ccc2c1` (stereo not drawn) [Example 61, N-(5-(2,3-dihydrobenzo[b][1,4]dioxine-6-carboxamido)-2-methylphenyl)-2-(2-(2-methylpyrrolidin-1-yl)ethoxy)quinoline-6-carboxamide], the IC50 with U2OS cells was found to be 18 nM; in the test with HSP72 in U2OS cells, 16 nM.

For `Cc1ccc(NC(=O)c2ccc3c(c2)OCCO3)cc1NC(=O)c1ccc2nc(OCCN(C)C)ccc2c1` [Example 62, N-(5-(2,3-dihydrobenzo[b][1,4]dioxine-6-carboxamido)-2-methylphenyl)-2-(2-(dimethylamino)ethoxy)quinoline-6-carboxamide], the IC50 turned out to be 16 nM in the test on U2OS cells and 17 nM with HSP72 in U2OS cells.

With `Cc1ccc(NC(=O)c2ccc3c(c2)OCCO3)cc1NC(=O)c1ccc2nc(N(C)CCN3CCCC3)ccc2c1` [Example 64, N-(5-(2,3-dihydrobenzo[b][1,4]dioxine-6-carboxamido)-2-methylphenyl)-2-(methyl(2-(pyrrolidin-1-yl)ethyl)amino)quinoline-6-carboxamide], the values for the IC50 with U2OS cells and in the test with HSP72 in U2OS cells were 32 nM and 25 nM, respectively.

As to `Cc1ccc(NC(=O)c2ccc3c(c2)OCCO3)cc1NC(=O)c1ccc2nc(OCCN3CC[C@H](F)C3)ccc2c1` [Example 65, (S)—N-(5-(2,3-dihydrobenzo[b][1,4]dioxine-6-carboxamido)-2-methylphenyl)-2-(2-(3-fluoropyrrolidin-1-yl)ethoxy)quinoline-6-carboxamide], the IC50 amounted to 7 nM in the test with U2OS cells and 29 nM with HSP72 in U2OS cells.

As to `Cc1ccc(NC(=O)c2ccc3c(c2)OCCO3)cc1NC(=O)c1ccc2nc(OCCN3CCOCC3)ccc2c1` [Example 66, N-(5-(2,3-dihydrobenzo[b][1,4]dioxine-6-carboxamido)-2-methylphenyl)-2-(2-morpholinoethoxy)quinoline-6-carboxamide], the IC50 is 40 nM in the test on U2OS cells and 30 nM in the test with HSP72 in U2OS cells.

As to `Cc1ccc(NC(=O)c2ccc3c(c2)OCCO3)cc1NC(=O)c1ccc2nc(CN3CCCC3)ccc2c1` [Example 67, N-(5-(2,3-dihydrobenzo[b][1,4]dioxine-6-carboxamido)-2-methylphenyl)-2-(pyrrolidin-1-ylmethyl)quinoline-6-carboxamide formate], the IC50 stood at 33 nM with U2OS cells and 35 nM in the test on HSP72 in U2OS cells.

`Cc1ccc(NC(=O)c2ccc3c(c2)OCCO3)cc1NC(=O)c1ccc2nc(OCC(C)N3CCCC3)ccc2c1` (stereo not drawn) [Example 68, N-(5-(2,3-dihydrobenzo[b][1,4]dioxine-6-carboxamido)-2-methylphenyl)-2-(2-(pyrrolidin-1-yl)propoxy)quinoline-6-carboxamide]: the IC50 in the test on U2OS cells came to 12 nM; in the test on HSP72 in U2OS cells, 41 nM.

In the case of `Cc1ccc(NC(=O)c2ccc3c(c2)OCCO3)cc1NC(=O)c1ccc2nc(CCN(C)C)ccc2c1` [Example 69, N-(5-(2,3-dihydrobenzo[b][1,4]dioxine-6-carboxamido)-2-methylphenyl)-2-(2-(dimethylamino)ethyl)quinoline-6-carboxamide], the IC50 was 305 nM in the test with U2OS cells and 57 nM with HSP72 in U2OS cells.

As to `Cc1ccc(NC(=O)c2ccc3c(c2)OCCO3)cc1NC(=O)c1ccc2nc(CN3CCN(C)CC3)ccc2c1` [Example 70, N-(5-(2,3-dihydrobenzo[b][1,4]dioxine-6-carboxamido)-2-methylphenyl)-2-((4-methylpiperazin-1-yl)methyl)quinoline-6-carboxamide], the IC50 in the test with U2OS cells stood at 92 nM; in the test on HSP72 in U2OS cells, 59 nM.

For the compound `Cc1ccc(NC(=O)c2ccc3c(c2)OCCO3)cc1NC(=O)c1ccc2nc(CN(C)C)ccc2c1` [Example 71, N-(5-(2,3-dihydrobenzo[b][1,4]dioxine-6-carboxamido)-2-methylphenyl)-2-((dimethylamino)methyl)quinoline-6-carboxamide], the IC50 was 118 nM in the test on U2OS cells and 82 nM in the test on HSP72 in U2OS cells.

As for `Cc1ccc(NC(=O)c2ccc3c(c2)OCCO3)cc1NC(=O)c1ccc2nc(OCCN3CCC(F)(F)CC3)ccc2c1` [Example 72, 2-(2-(4,4-difluoropiperidin-1-yl)ethoxy)-N-(5-(2,3-dihydrobenzo[b][1,4]dioxine-6-carboxamido)-2-methylphenyl)quinoline-6-carboxamide], the IC50 in the test with U2OS cells turned out to be 60 nM; in the test on HSP72 in U2OS cells, 105 nM.

Take `Cc1ccc(NC(=O)c2ccc3c(c2)OCCO3)cc1NC(=O)c1ccc2nc(OC(C)CN3CCCC3)ccc2c1` (stereo not drawn) [Example 73, N-(5-(2,3-dihydrobenzo[b][1,4]dioxine-6-carboxamido)-2-methylphenyl)-2-((1-(pyrrolidin-1-yl)propan-2-yl)oxy)quinoline-6-carboxamide]: the IC50 in the test with U2OS cells came out at 21 nM; with HSP72 in U2OS cells, 90 nM.

Consider `Cc1ccc(NC(=O)c2ccc3c(c2)OCCO3)cc1NC(=O)c1ccc2nc(CCO)ccc2c1` [Example 75, N-(5-(2,3-dihydrobenzo[b][1,4]dioxine-6-carboxamido)-2-methylphenyl)-2-(2-hydroxyethyl)quinoline-6-carboxamide], for which the IC50 with U2OS cells came to 56 nM; in the test on HSP72 in U2OS cells, 17 nM.

Consider `CNCCCOc1ccc2cc(C(=O)Nc3cc(NC(=O)c4ccc5c(c4)OCCO5)ccc3C)ccc2n1` [Example 76, N-(5-(2,3-dihydrobenzo[b][1,4]dioxine-6-carboxamido)-2-methylphenyl)-2-(3-(methylamino)propoxy)quinoline-6-carboxamide], for which the IC50 in the test on U2OS cells is 10 nM; with HSP72 in U2OS cells it was 21 nM.

As for `CCC(=O)N(C)Cc1ccc2cc(C(=O)Nc3cc(NC(=O)c4ccc5c(c4)OCCO5)ccc3C)ccc2n1` [Example 78, N-(5-(2,3-dihydrobenzo[b][1,4]dioxine-6-carboxamido)-2-methylphenyl)-2-((N-methylpropionamido)methyl)quinoline-6-carboxamide], the values for the IC50 with U2OS cells and in the test with HSP72 in U2OS cells were 91 nM and 45 nM, respectively.

On to `CNc1ccc2cc(C(=O)Nc3cc(NC(=O)c4ccc5c(c4)OCCO5)ccc3C)ccc2n1` [Example 79, N-(5-(2,3-dihydrobenzo[b][1,4]dioxine-6-carboxamido)-2-methylphenyl)-2-(methylamino)quinoline-6-carboxamide], for which the IC50 is 54 nM in the test on U2OS cells and 70 nM with HSP72 in U2OS cells.

With `Cc1ccc(NC(=O)c2ccc3c(c2)OCCO3)cc1NC(=O)c1ccc2c(c1)CCN2` [Example 84, N-(5-(2,3-dihydrobenzo[b][1,4]dioxine-6-carboxamido)-2-methylphenyl)indoline-5-carboxamide], the IC50 in the test on U2OS cells was 95 nM; in the test on HSP72 in U2OS cells, 184 nM.

Turning to `Cc1ccc(NC(=O)c2ccc3c(c2)OCCO3)cc1NC(=O)c1ccc2c(c1)CCC(CN(C)C)N2` (stereo not drawn) [Example 87, N-(5-(2,3-dihydrobenzo[b][1,4]dioxine-6-carboxamido)-2-methylphenyl)-2-((dimethylamino)methyl)-1,2,3,4-tetrahydroquinoline-6-carboxamide], the values for the IC50 with U2OS cells and in the test with HSP72 in U2OS cells were 260 nM and 608 nM, respectively.

`Cc1ccc(NC(=O)c2ccc3c(c2)OCCO3)cc1NC(=O)c1ccc2nc(N)sc2c1` [Example 91, 2-amino-N-(5-(2,3-dihydrobenzo[b][1,4]dioxine-6-carboxamido)-2-methylphenyl)benzo[d]thiazole-6-carboxamide]: the values for the IC50 with U2OS cells and with HSP72 in U2OS cells were 115 nM and 70 nM, respectively.

Turning to `Cc1ccc(NC(=O)c2ccc3c(c2)OCCO3)cc1NC(=O)c1cnc2[nH]cnc2c1` [Example 92, N-(5-(2,3-dihydrobenzo[b][1,4]dioxine-6-carboxamido)-2-methylphenyl)-3H-imidazo[4,5-b]pyridine-6-carboxamide], the IC50 in the test with U2OS cells came to 3280 nM; in the test on HSP72 in U2OS cells, 4410 nM.

For the origin of these results see patent US9701664B2, “Fused 1,4-dihydrodioxin derivatives as inhibitors of heat shock transcription factor 1” (Cancer Research Technology Limited, priority 2013, dated 2017).
